Test results reported in patent US10596151B2, “Methods and pharmaceutical compositions for reducing arterial stiffness with a combination of a therapeutic agent blocking the angiotensin receptor and a therapeutic agent inhibiting the NEP enzyme” (Novartis AG, priority 2015, dated 2020).
Where “and” joins values, the source holds several entries; their conditions need not be identical. Equal values may be shown once. Marks after values point to notes of the source that are not given here.

Columns and labels:
[1] = system: elderly patients (≥60 years) with essential hypertension; assay: […] study: mean sitting (brachial) blood pressure and pulse pressure; format: in vivo, human; details: for Change from baseline to 12 weeks, msDBP / Change from baseline to 52 weeks, msDBP: mean sitting diastolic BP; for Change from baseline to 12 weeks, msDBP / Change from baseline to 52 weeks, msDBP / Change from baseline to 12 weeks, msPP / Change from baseline to 52 weeks, msPP / Change from baseline to 12 weeks, msSBP / Change from baseline to 52 weeks, msSBP: mean; for Change from baseline to 12 weeks, msMAP / Change from baseline to 52 weeks, msMAP: mean sitting mean arterial pressure; for Change from baseline to 12 weeks, msPP / Change from baseline to 52 weeks, msPP: mean sitting pulse pressure; for Change from baseline to 12 weeks, msSBP / Change from baseline to 52 weeks, msSBP: mean sitting systolic BP
Description: The study enrolled patient from 5 Dec. 2012 to 8 Apr. 2015.
Superiority testing is also planned for the key secondary efficacy assessment, i.e. the reduction in mean central aortic PP (CAPP) after 12 weeks of treatment, and other secondary efficacy assessments such as mean CASP and CAPP after 52 weeks of treatment. Mean aPWV, msSBP, msDBP, msPP, mean ambulatory (ma) BP, maPP, and MAP will also be measured after 12 and 52 weeks of treatment.

[2] = system: patients with heart failure with preserved ejection fraction; details: cited from earlier work
[3] = system: elderly patients (≥60 years) with essential hypertension; assay: […] study: central aortic pressures (CASP, CPP/CAPP, central DBP, central MAP) by SphygmoCor X-CEL; format: in vivo, human; details: for LSM change from baseline (SE) in mean CPP at Week 12 endpoint / LSM change from baseline (SE) in mean CASP at Week 12 endpoint: monotherapy; for LSM change from baseline (SE) in mean CASP at Week 12 endpoint: olmesartan 40 mg/day; for LSM change from baseline (SE) in mean CASP at Week 52 endpoint / LSM change from baseline (SE) in mean CPP at Week 52 endpoint: add-on amlodipine/HCTZ allowed; for Change from baseline to 12 weeks, mscDBP / Change from baseline to 52 weeks, mscDBP: mean sitting central diastolic BP; for Change from baseline to 12 weeks, mscMAP / Change from baseline to 52 weeks, mscMAP: mean sitting central mean arterial pressure, mean
Experimental: The term CAPP refers to central aortic PP. In the context of the present invention CAPP is measured with the SphygmoCor X-CEL System (AtCor Medical, Sydney, Australia) to non-invasively derive the ascending aortic pressure waveform from the brachial waveform using a validated generalised transfer function (GTF). A properly sized BP cuff is linked to a computer and software and the CASP, CAPP, augmentation pressure, and Alx are determined from the analysis of waveform by the system software. […]
The primary and secondary endpoints are changes from baseline in central aortic systolic pressure (CASP) and central aortic PP (CAPP) at week 12, respectively. Other secondary endpoints are the changes in CASP and CAPP at week 52. […] The primary variable will be analysed using a two-way analysis of covariance.
The SphygmoCor X-CEL System (AtCor Medical, Sydney, Australia) is being used to non-invasively derive the ascending aortic pressure waveform from the brachial waveform using a validated generalised transfer function (GTF).22 A properly sized BP cuff is linked to a computer and software and the CASP, CAPP, augmentation pressure, and Alx are determined from the analysis of waveform by the system software.
A sample size of 183 completers per group is targeted, which is calculated based on the primary efficacy variable, change from baseline in mean CASP at 12 weeks, assuming a standard deviation of 19 mm Hg. […] Assuming a 15% dropout rate, the total targeted sample size to be randomised is 432 patients (216 per group). The primary variable at the Week 12 endpoint will be analysed using a two-way analysis of covariance (ANCOVA), with treatment and region as factors and the baseline as a covariate. Mean CAPP at the Week 12 endpoint will be analysed using the same type of ANCOVA model used for the primary efficacy analysis. A two-sided significance at 0.05 level will be used for this analysis and a 95% confidence interval for the treatment difference will be provided.

[4] = system: patients with mild-to-moderate essential hypertension; details: LCZ696 100, 200 and 400 mg once daily; cited from earlier work
[5] = LCZ696 regimen vs olmesartan regimen, 52 weeks
[6] = Week 12 endpoint, FAS, LCZ696 400 mg/day
[7] = Week 52 endpoint (LOCF), FAS, listed as olmesartan

| Structure (SMILES) | Change from baseline to 12 weeks, msDBP ([1]; 12 weeks) | Change from baseline to 52 weeks, msDBP ([1]; 52 weeks) | Change from baseline to 12 weeks, msMAP ([1]; 12 weeks) | Change from baseline to 52 weeks, msMAP ([1]; 52 weeks) | Change from baseline to 12 weeks, msPP ([1]; 12 weeks) | Change from baseline to 52 weeks, msPP ([1]; 52 weeks) | Change from baseline to 12 weeks, msSBP ([1]; 12 weeks) | Change from baseline to 52 weeks, msSBP ([1]; 52 weeks) | LSM change from baseline (SE) in mean CPP at Week 12 endpoint ([3]; Week 12 endpoint, FAS) | LSM change from baseline (SE) in mean CASP at Week 12 endpoint [3, 6] | LSM change from baseline (SE) in mean CASP at Week 52 endpoint ([3]; Week 52 endpoint (LOCF), FAS) | LSM change from baseline (SE) in mean CPP at Week 52 endpoint ([3]; Week 52 endpoint (LOCF), FAS) | Change from baseline to 12 weeks, mscDBP ([3]; 12 weeks) | Change from baseline to 52 weeks, mscDBP ([3]; 52 weeks) | Change from baseline to 12 weeks, mscMAP ([3]; 12 weeks) | Change from baseline to 52 weeks, mscMAP ([3]; 52 weeks) | further results |
| --- | --- | --- | --- | --- | --- | --- | --- | --- | --- | --- | --- | --- | --- | --- | --- | --- | --- |
| CCCCC(=O)N(Cc1ccc(-c2ccccc2-c2nn[n-]n2)cc1)C(C(=O)[O-])C(C)C.CCCCC(=O)N(Cc1ccc(-c2ccccc2-c2nn[n-]n2)cc1)C(C(=O)[O-])C(C)C.CCOC(=O)C(C)CC(Cc1ccc(-c2ccccc2)cc1)NC(=O)CCC(=O)[O-].CCOC(=O)C(C)CC(Cc1ccc(-c2ccccc2)cc1)NC(=O)CCC(=O)[O-].O.O.O.O.O.[Na+].[Na+].[Na+].[Na+].[Na+].[Na+] [LCZ696, trisodium [3-((1S,3R)-1-biphenyl-4-ylmethyl-3-ethoxycarbonyl-1-butylcarbamoyl) propionate-(S)-3′-methyl-2′-(pentanoyl{2″-(tetrazol-5-ylate)biphenyl-4′-ylmethyl}amino)butyrate]hemipentahydrate] | −5.3 mmHg | −8.1 mmHg | −12.2 mmHg | −13.9 mmHg | −8.0 mmHg | −9.1 mmHg | −13.3 mmHg | −17.2 mmHg | −6.41 mmHg and −6.41 (0.69) mmHg | −12.57 mmHg and −12.57 (1.01) mmHg | −16.18 mmHg and −16.18 (0.96) mmHg | −7.16 mmHg and −7.16 (0.69) mmHg | −6.1 mmHg | −8.8 mmHg | −8.0 mmHg | −9.6 mmHg | Between-treatment difference, msMAP, 12 weeks ([1]; LCZ696 regimen vs olmesartan regimen, 12 weeks, P < 0.001): −3.6 (0.95)* mmHg; Between-treatment difference, msMAP, 52 weeks [1, 5]: −1.5 (0.89) mmHg; reduction of NT-proBNP vs valsartan alone ([2]; at 12 weeks): to a greater extent than valsartan alone; tolerability ([2]; heart failure with preserved ejection fraction): well tolerated; lowering of CASP and CPP vs olmesartan 40 mg/day ([3]; LCZ696 400 mg/day, after 12 weeks of monotherapy): to a greater extent than olmesartan; Between-treatment difference, mscDBP, 12 weeks ([3]; LCZ696 regimen vs olmesartan regimen, 12 weeks): −1.1 (0.90) mmHg; Between-treatment difference, mscDBP, 52 weeks [3, 5]: −0.7 (0.86) mmHg; LSM difference in change from baseline (SE), mean CPP, LCZ696 vs Olmesartan ([3]; Week 12 endpoint, FAS, ANCOVA, p=0.012): −2.45 mmHg and −2.45 (0.96) mmHg; LSM difference in change from baseline (SE), mean CASP, LCZ696 vs Olmesartan ([3]; Week 52 endpoint (LOCF), FAS, p=0.271): −1.49 (1.35) mmHg; LSM difference in change from baseline (SE), mean CPP, LCZ696 vs Olmesartan ([3]; Week 52 endpoint (LOCF), FAS, p=0.598): −0.51 (0.97) mmHg; BP reductions vs corresponding doses of valsartan alone (160 and 320 mg) [4]: greater BP reductions than corresponding doses of valsartan alone; tolerability [4]: well tolerated |
| CCCc1nc(C(C)(C)O)c(C(=O)O)n1Cc1ccc(-c2ccccc2-c2nnn[nH]2)cc1 [Olmesartan, reference compound] | −5.2 mmHg | −8.5 mmHg | −8.6 mmHg | −12.4 mmHg | −4.5 mmHg | −7.6 mmHg | −9.7 mmHg | −16.0 mmHg | −3.96 (0.69) mmHg | −8.90 (1.01) mmHg | −14.70 (0.96) mmHg | −6.65 (0.69) mmHg | −5.0 mmHg | −8.1 mmHg | −6.7 mmHg | −9.1 mmHg | LSM change from baseline (SE) in mean CASP at Week 12 endpoint ([3]; Week 12 endpoint, FAS, LCZ696 400 mg/day, listed as olmesartan): −8.90 mmHg; LSM change from baseline (SE) in mean CPP at Week 12 endpoint ([3]; Week 12 endpoint, FAS, listed as olmesartan): −3.96 mmHg; LSM change from baseline (SE) in mean CASP at Week 52 endpoint [3, 7]: −14.70 mmHg; LSM change from baseline (SE) in mean CPP at Week 52 endpoint [3, 7]: −6.65 mmHg |
